Patent US12540131B2 (Merck Sharp & Dohme LLC, priority 2019, dated 2026)

biological target: GST tagged truncated human mutant G2019S LRRK2 (Homo sapiens (Human), UniProt Q5S007, G2019S); test: LRRK2 Km ATP LanthaScreen Assay; type: biochemical; conditions: G2019S LRRK2, 134 μM ATP (Km ATP), mean values
Procedure, shortened: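 Enzyme (GST-tagged, truncated) was preincubated with compound for 15 min at RT in 50 mM Tris pH 8.5, 10 mM MgCl2, 0.01% Brij-35, 1 mM EGTA, 2 mM DTT and 0.05 mM orthovanadate. Fluorescein-LRRKtide and 134 μM ATP (Km) were then added for 90 min. EDTA and Tb-anti-pERM antibody stopped the reaction; the TR-FRET 520/495 ratio gave 4-parameter IC50s, reported as mean pIC50.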

Sequence of GST tagged truncated human mutant G2019S LRRK2 (Q5S007 970-2527 G2019S): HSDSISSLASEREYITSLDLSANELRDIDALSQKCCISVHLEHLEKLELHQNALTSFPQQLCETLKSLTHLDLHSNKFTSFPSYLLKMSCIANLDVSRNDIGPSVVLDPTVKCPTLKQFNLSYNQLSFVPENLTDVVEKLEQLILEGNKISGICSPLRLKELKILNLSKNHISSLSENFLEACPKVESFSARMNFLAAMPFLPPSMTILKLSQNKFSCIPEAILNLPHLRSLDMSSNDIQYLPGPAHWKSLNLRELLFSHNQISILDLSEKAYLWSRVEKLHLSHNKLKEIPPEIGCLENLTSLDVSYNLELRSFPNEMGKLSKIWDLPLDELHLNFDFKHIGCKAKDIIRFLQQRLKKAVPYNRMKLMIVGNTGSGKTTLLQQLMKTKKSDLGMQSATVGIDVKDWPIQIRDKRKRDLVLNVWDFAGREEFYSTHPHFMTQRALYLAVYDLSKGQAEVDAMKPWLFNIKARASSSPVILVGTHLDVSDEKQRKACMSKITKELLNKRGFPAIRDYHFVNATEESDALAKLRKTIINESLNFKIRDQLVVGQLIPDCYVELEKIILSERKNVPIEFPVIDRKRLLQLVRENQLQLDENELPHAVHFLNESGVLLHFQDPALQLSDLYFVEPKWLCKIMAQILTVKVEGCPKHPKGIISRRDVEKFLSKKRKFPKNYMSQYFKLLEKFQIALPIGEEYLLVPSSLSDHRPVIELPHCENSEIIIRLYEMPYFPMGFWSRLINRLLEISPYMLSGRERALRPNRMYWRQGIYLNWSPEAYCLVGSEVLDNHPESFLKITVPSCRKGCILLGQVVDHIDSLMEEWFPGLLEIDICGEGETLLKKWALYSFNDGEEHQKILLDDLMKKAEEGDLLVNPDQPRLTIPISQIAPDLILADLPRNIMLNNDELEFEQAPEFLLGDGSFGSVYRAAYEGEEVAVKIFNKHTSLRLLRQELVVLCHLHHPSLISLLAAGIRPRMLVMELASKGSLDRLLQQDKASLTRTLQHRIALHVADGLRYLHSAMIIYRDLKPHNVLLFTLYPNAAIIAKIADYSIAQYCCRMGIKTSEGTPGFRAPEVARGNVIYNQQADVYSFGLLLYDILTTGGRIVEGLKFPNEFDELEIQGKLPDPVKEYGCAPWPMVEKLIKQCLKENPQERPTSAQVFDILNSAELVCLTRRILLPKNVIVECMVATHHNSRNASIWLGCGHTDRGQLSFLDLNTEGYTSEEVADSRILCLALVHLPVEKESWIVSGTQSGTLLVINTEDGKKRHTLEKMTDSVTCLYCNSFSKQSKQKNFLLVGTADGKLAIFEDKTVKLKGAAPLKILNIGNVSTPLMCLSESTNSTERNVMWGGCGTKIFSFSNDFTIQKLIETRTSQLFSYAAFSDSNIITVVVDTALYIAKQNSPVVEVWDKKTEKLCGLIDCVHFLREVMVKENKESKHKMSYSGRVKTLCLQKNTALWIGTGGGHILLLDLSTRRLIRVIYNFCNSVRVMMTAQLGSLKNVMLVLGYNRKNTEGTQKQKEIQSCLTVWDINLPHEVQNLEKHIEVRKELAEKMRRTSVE

Row | SMILES | LRRK2 pIC50
1 | FC(F)Cn1ncc(Nc2ncc3cc(Cl)c(C4CCNCC4)cc3n2)c1Cl [Ex-4.93, 6-chloro-N-[5-chloro-1-(2,2-difluoroethyl)-1H-pyrazol-4-yl]-7-(piperidin-4-yl)quinazolin-2-amine] | 8.70
2 | COCC12CC(n3ncc(Nc4ncc5cc(Cl)c(C6CCN(C7(C)COC7)CC6)cc5n4)c3Cl)(C1)C2 [Ex-8.39, 6-chloro-N-{5-chloro-1-[3-(methoxymethyl)bicyclo[1.1.1]pentan-1-yl]-1H-pyrazol-4-yl}-7-[1-(3-methyloxetan-3-yl)piperidin-4-yl]quinazolin-2-amine] | 8.98
3 | O=S1(=O)CC(N2CC[C@@H](c3cc4nc(Nc5cnn(C6CC6(F)F)c5Cl)ncc4cc3Cl)[C@H](F)C2)C1 (single isomer, unassigned) [Ex-4.124, (S)(3S,4S) or (S)(3R,4R) or (R)(3S,4S) or (R)(3R,4R) 3-[4-(6-chloro-2-{[5-chloro-1-(2,2-difluorocyclopropyl)-1H-pyrazol-4-yl]amino}quinazolin-7-yl)-3-fluoropiperidin-1-yl]thietane 1,1-dioxide] | 8.91
4 | Cc1c(Nc2ncc3cc(Cl)c(C4CCN(C[C@H](O)c5ccc(F)cc5F)CC4)cc3n2)cnn1C1CC1 [Ex-4.201, (1R)-2-(4-{6-chloro-2-[(1-cyclopropyl-5-methyl-1H-pyrazol-4-yl)amino]quinazolin-7-yl}piperidin-1-yl)-1-(2,4-difluorophenyl)ethan-1-ol] | 8.19
5 | CC1OCC1N1CC[C@@H](c2cc3nc(Nc4cnn(CC(C)(C)O)c4Cl)ncc3cc2Cl)[C@H](F)C1 (single isomer, unassigned) [Ex-4.71, (3S,4S)(2R,3R) or (3S,4S)(2S,3S) or (3R,4R)(2R,3R) or (3R,4R)(2S,3S) or (3R,4R)(2S,3R) or (3R,4R)(2R,3S) or (3S,4S)(2S,3R) or (3S,4S)(2R,3S) 1-[5-chloro-4-({6-chloro-7-[3-fluoro-1-(2-methyloxetan-3-yl)piperidin-4-yl]quinazolin-2-yl}amino)-1H-pyrazol-1-yl]-2-methylpropan-2-ol] | 7.74
6 | O=S1(=O)CC(N2CC[C@@H](c3cc4nc(Nc5cnn(C6CC6)c5Cl)ncc4cc3Cl)[C@H](F)C2)C1 (single isomer, unassigned) | 8.52
7 | Cc1cc(Nc2ncc3cc(Cl)c(C4CCN(C5CS(=O)(=O)C5)CC4)cc3n2)sn1 [Ex-4.96, 3-(4-(6-chloro-2-((3-methylisothiazol-5-yl)amino)quinazolin-7-yl)piperidin-1-yl)thietane 1,1-dioxide] | 9.09
8 | Cn1ncc(Nc2ncc3cc(Cl)c([C@H]4CCN([C@@H]5COC[C@@H]5O)C[C@@H]4F)cc3n2)c1C1CC1 (single isomer, unassigned) [Ex-4.241, (3S,4S)(3S,4S) or (3S,4S)(3R,4R) or (3R,4R)(3S,4S) or (3R,4R)(3R,4R) 4-(4-{6-chloro-2-[(5-cyclopropyl-1-methyl-1H-pyrazol-4-yl)amino]quinazolin-7-yl}-3-fluoropiperidin-1-yl)oxolan-3-ol] | >9.20
9 | OC1COCC1n1ncc(Nc2ncc3cc(Cl)c(C4CCN(C5COC5)CC4)cc3n2)c1Cl (stereo not shown) [Ex-2.48, 4-[5-chloro-4-({6-chloro-7-[1-(oxetan-3-yl)piperidin-4-yl]quinazolin-2-yl}amino)-1H-pyrazol-1-yl]oxolan-3-ol] | 8.77
10 | F[C@H]1CN(C2COC2)CC[C@@H]1c1cc2nc(Nc3cnn(C4CC4(F)F)c3Cl)ncc2cc1Cl (single isomer, unassigned) [Ex-8.31, (R)(3S,4S) or (S)(3S,4S) or (R)(3R,4R) or (S)(3R,4R) 6-chloro-N-[5-chloro-1-(2,2-difluorocyclopropyl)-1H-pyrazol-4-yl]-7-[3-fluoro-1-(oxetan-3-yl)piperidin-4-yl]quinazolin-2-amine] | >9.20
11 | Cc1c(Nc2ncc3cc(Cl)c(C4CCN(C[C@@H](O)c5ccc(F)cc5)CC4)cc3n2)cnn1C1CC1 [Ex-4.214, (1S)-2-(4-{6-chloro-2-[(1-cyclopropyl-5-methyl-1H-pyrazol-4-yl)amino]quinazolin-7-yl}piperidin-1-yl)-1-(4-fluorophenyl)ethan-1-ol] | 8.62
12 | Cn1ncc(Nc2ncc3cc(Cl)c([C@@H]4CCN([C@@]5(C)COC[C@H]5O)C[C@H]4F)cc3n2)c1Cl (single isomer, unassigned) [Ex-4.234, (3S,4S)(3S,4S) or (3S,4S)(3R,4R) or (3R,4R)(3S,4S) or (3R,4R)(3R,4R) 4-(4-{6-chloro-2-[(5-chloro-1-methyl-1H-pyrazol-4-yl)amino]quinazolin-7-yl}-3-fluoropiperidin-1-yl)-4-methyloxolan-3-ol] | 7.23
13 | Cc1c(Nc2ncc3cc(C(F)(F)F)c(C4CCN([C@@]5(C)COC[C@H]5O)CC4)cc3n2)cnn1C1CC1 (single isomer, unassigned) [Ex-9.1, (3S,4S) or (3R,4R) 4-(4-(2-((1-cyclopropyl-5-methyl-1H-pyrazol-4-yl)amino)-6-(trifluoromethyl)quinazolin-7-yl)piperidin-1-yl)-4-methyltetrahydrofuran-3-ol] | 9.19
14 | Cc1c(Nc2ncc3cc(Cl)c(C4CCN(C[C@H](O)c5cccc(Cl)c5)CC4)cc3n2)cnn1C1CC1 [Ex-4.194, (1R)-2-(4-{6-chloro-2-[(1-cyclopropyl-5-methyl-1H-pyrazol-4-yl)amino]quinazolin-7-yl}piperidin-1-yl)-1-(3-chlorophenyl)ethan-1-ol] | 8.28
15 | CC1(N2CC[C@@H](c3cc4nc(Nc5cnn(C6CC6)c5Cl)ncc4cc3Cl)[C@H](F)C2)COC1 (single isomer, unassigned) [Ex-4.99, (3S,4S) or (3R,4R) 6-chloro-N-(5-chloro-1-cyclopropyl-1H-pyrazol-4-yl)-7-[3-fluoro-1-(3-methyloxetan-3-yl)piperidin-4-yl]quinazolin-2-amine] | 8.01
16 | CC1(n2ncc(Nc3ncc4cc(Cl)c(C5CCN(C(F)(F)F)CC5)cc4n3)c2Cl)CC1 [Ex-4.7, 6-chloro-N-(5-chloro-1-(1-methylcyclopropyl)-1H-pyrazol-4-yl)-7-(1-(trifluoromethyl)piperidin-4-yl)quinazolin-2-amine] | 7.74
17 | CC(n1ncc(Nc2ncc3cc(Cl)c([C@@H]4CCN(C5COC5)C[C@H]4F)cc3n2)c1Cl)C(C)(C)O (single isomer, unassigned) [Ex-4.65, (R)(3S,4S) or (R)(3R,4R) or (S)(3S,4S) or (S)(3R,4R) 3-[5-chloro-4-({6-chloro-7-[3-fluoro-1-(oxetan-3-yl)piperidin-4-yl]quinazolin-2-yl}amino)-1H-pyrazol-1-yl]-2-methylbutan-2-ol] | 8.91
18 | O[C@@H]1COC[C@@H]1N1CC[C@H](c2cc3nc(Nc4cnn(C56CC(C5)C6)c4Cl)ncc3cc2Cl)[C@@H](F)C1 (single isomer, unassigned) [Ex-8.32, (3S,4S)(3S,4S) or (3S,4S)(3R,4R) or (3R,4R)(3S,4S) or (3R,4R)(3R,4R) 4-[4-(2-{[1-(bicyclo[1.1.1]pentan-1-yl)-5-chloro-1H-pyrazol-4-yl]amino}-6-chloroquinazolin-7-yl)-3-fluoropiperidin-1-yl]oxolan-3-ol] | 9.05
19 | CC1(N2CCC(c3cc4nc(Nc5cnn(C67CC(C6)C7)c5Cl)ncc4cc3Cl)CC2)COC1 [Ex-8.38, N-[1-(bicyclo[1.1.1]pentan-1-yl)-5-chloro-1H-pyrazol-4-yl]-6-chloro-7-[1-(3-methyloxetan-3-yl)piperidin-4-yl]quinazolin-2-amine] | >9.20
20 | Cn1nc(C(F)(F)F)cc1Nc1ncc2cc(Cl)c(C3CCN([C@@H]4COC[C@@H]4O)CC3)cc2n1 (single isomer, unassigned) [Ex-1.24, (3S,4S) or (3R,4R) 4-[4-(6-chloro-2-{[1-methyl-3-(trifluoromethyl)-1H-pyrazol-5-yl]amino}quinazolin-7-yl)piperidin-1-yl]oxolan-3-ol] | 8.58

same assay, conditions: G2019S LRRK2, 134 μM ATP (Km ATP), mean values; read-out: LRRK2 pIC50 (converted)

Row | SMILES | IC50 [nM]
21 | Cc1c(Nc2ncc3cc(Cl)c(C4CCN(C5COC5)CC4)cc3n2)cnn1C1CC1(F)F (single isomer, unassigned) [Ex-4.179, (R) or (S) 6-chloro-N-[1-(2,2-difluorocyclopropyl)-5-methyl-1H-pyrazol-4-yl]-7-[1-(oxetan-3-yl)piperidin-4-yl]quinazolin-2-amine] | < 0.631
22 | Cc1c(Nc2ncc3cc(Cl)c(C4CCN(C5(C)COC5)CC4)cc3n2)cnn1C1CCOC1 (single isomer, unassigned) [Ex-2.25, (S) or (R) 6-chloro-7-[1-(3-methyloxetan-3-yl)piperidin-4-yl]-N-[5-methyl-1-(oxolan-3-yl)-1H-pyrazol-4-yl]quinazolin-2-amine] | 0.891
23 | Cc1c(Nc2ncc3cc(Cl)c(C4CCN(C5(C)COC5)CC4)cc3n2)cnn1C1CCOC1 (single isomer, unassigned) [Ex-2.26, (S) or (R) 6-chloro-7-[1-(3-methyloxetan-3-yl)piperidin-4-yl]-N-[5-methyl-1-(oxolan-3-yl)-1H-pyrazol-4-yl]quinazolin-2-amine] | < 0.631
24 | Cc1c(Nc2ncc3cc(Cl)c(C4CCN(C5COC5)[C@@H](C)C4)cc3n2)cnn1C1CC1 (single isomer, unassigned) [Ex-1.14, (S) or (R) 6-chloro-N-(1-cyclopropyl-5-methyl-1H-pyrazol-4-yl)-7-(2-methyl-1-(oxetan-3-yl)piperidin-4-yl)quinazolin-2-amine] | < 0.631
25 | Cc1cc2cnc(Nc3cnn(C4CC4)c3Cl)nc2cc1C1CCN([C@@]2(C)COC[C@H]2O)CC1 (single isomer, unassigned) [Ex-2.36, (3S,4S) or (3R,4R) 4-(4-{2-[(5-chloro-1-cyclopropyl-1H-pyrazol-4-yl)amino]-6-methylquinazolin-7-yl}piperidin-1-yl)-4-methyloxolan-3-ol] | < 0.631
